Measured values reported in US11697648B2, “Fused pyrimidine pyridinone compounds as JAK inhibitors” (THERAVANCE BIOPHARMA R&D IP, LLC, priority 2019, dated 2023).

How the values were obtained:
JAK1 = JAK1 (Homo sapiens (Human), UniProt P23458); test: Biochemical JAK1 kinase assay (LanthaScreen)
How it was run: (§1)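 GST-JAK + GFP-STAT1 peptide, HEPES pH 7.5/MgCl2/EGTA/Brij-35 buffer; cpd preincubation 1 h RT; ATP start, 1 h RT; stop with 10 mM EDTA + 2 nM Tb-anti-pSTAT1; TR-FRET 520/495. 4-parameter IC50 → pKi (Cheng-Prusoff).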

JAK3 = JAK3 (Homo sapiens (Human), UniProt P52333); test: Biochemical JAK3 kinase assay (LanthaScreen); details: for JAK3 (pKi)-JAK1 (pKi): selectivity JAK3 over JAK1, difference of pKi
Sequence of JAK3 (P52333 whole entry): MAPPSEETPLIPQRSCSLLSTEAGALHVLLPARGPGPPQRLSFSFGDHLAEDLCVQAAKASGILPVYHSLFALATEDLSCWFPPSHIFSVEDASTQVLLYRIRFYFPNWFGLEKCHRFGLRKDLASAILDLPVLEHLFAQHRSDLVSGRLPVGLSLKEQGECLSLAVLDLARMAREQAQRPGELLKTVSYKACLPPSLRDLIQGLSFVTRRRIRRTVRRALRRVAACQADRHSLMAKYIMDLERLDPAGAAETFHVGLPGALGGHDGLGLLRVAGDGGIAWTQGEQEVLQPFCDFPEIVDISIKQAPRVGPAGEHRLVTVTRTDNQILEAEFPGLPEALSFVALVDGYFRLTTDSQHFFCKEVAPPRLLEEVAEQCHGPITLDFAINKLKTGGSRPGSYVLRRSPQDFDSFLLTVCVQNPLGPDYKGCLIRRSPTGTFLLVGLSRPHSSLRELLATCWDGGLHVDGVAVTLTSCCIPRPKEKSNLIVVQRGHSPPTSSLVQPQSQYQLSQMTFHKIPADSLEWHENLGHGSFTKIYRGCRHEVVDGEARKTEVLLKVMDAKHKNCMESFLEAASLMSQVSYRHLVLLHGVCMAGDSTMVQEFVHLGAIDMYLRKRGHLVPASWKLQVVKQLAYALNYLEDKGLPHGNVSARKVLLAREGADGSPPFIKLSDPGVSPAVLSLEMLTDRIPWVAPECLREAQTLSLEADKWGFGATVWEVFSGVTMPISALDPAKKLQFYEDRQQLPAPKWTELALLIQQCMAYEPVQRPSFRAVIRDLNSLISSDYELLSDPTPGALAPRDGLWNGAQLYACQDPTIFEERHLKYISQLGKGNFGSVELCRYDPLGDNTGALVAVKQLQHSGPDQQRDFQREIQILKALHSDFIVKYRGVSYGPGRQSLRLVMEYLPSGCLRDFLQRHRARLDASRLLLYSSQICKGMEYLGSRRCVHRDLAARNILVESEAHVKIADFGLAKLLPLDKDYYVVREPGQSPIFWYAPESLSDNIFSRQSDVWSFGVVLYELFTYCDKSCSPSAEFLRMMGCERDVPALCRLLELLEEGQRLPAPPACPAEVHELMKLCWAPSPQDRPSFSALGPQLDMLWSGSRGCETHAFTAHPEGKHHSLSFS
How it was run: as §1

[1] = system: IL-2 stimulated STAT5 phosphorylation in Tall-1 human T cell line (JAK3); test: Cellular JAK3 potency assay: inhibition of IL-2 stimulated pSTAT5 in Tall-1 T cells; type: cell-based; details: IL-2 stimulated pSTAT5, Tall-1 T cells
How it was run: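 AlphaLISA SureFire Ultra measures STAT5 Tyr694/699 phosphorylation in lysed Tall-1 human T cells. Cells were exposed to compound for 1 h at 37 °C before a 30 min IL-2 challenge (300 ng/ml final). Values are pIC50 means with standard deviation from signal-versus-concentration curves.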

Tyk2 = Tyk2 (Homo sapiens (Human), UniProt P29597); test: Biochemical Tyk2 kinase assay (LanthaScreen)
Sequence of Tyk2 (P29597 whole entry): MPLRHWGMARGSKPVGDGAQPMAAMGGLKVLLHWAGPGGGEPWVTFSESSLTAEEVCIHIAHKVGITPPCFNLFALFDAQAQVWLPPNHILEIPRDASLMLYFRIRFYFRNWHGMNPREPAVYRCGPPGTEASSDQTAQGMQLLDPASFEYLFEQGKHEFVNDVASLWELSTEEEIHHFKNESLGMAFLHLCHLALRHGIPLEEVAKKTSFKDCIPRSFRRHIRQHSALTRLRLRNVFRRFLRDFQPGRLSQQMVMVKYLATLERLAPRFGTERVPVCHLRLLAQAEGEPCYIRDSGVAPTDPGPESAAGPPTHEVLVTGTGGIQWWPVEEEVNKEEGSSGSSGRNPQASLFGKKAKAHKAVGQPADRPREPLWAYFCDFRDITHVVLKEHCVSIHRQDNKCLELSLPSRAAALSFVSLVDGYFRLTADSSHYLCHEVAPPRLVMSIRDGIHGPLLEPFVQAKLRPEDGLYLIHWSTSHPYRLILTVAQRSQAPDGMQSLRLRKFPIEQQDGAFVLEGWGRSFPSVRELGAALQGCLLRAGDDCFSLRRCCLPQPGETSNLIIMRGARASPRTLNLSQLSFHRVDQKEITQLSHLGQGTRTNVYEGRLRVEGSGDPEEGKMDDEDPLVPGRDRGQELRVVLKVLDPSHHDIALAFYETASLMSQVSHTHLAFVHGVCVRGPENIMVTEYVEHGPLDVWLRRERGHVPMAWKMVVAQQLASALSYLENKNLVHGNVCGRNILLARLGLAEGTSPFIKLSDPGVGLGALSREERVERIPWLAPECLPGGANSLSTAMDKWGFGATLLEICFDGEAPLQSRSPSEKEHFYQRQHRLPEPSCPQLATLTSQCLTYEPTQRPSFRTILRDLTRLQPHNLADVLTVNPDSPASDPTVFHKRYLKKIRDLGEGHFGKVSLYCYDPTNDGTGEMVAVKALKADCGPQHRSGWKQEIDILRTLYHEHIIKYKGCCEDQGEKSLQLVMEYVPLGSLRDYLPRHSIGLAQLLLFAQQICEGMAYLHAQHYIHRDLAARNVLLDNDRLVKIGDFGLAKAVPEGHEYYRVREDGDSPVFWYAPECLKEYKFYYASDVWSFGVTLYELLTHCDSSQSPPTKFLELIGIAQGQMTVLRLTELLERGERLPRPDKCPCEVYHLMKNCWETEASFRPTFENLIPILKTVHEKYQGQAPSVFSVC
How it was run: as §1

[2] = Colon and plasma mouse pharmacokinetics; type: in vivo; details: male Balb/c mice, 10 mg/kg PO, ratio of the colon AUC to the plasma AUC; for Kp: mouse, colon tissue / plasma
Procedure: Assay 5: Colon and Plasma Mouse Pharmacokinetics
To 6 male Balb/c mice was administered 10 mg/kg of compound in 1% HPMC+0.1% Tween-80 by PO administration. At 0.5, 2 and 6 hours after dose administration, animals were anesthetized, and terminal blood samples were collected by cardiac puncture, followed by collection of colon contents and colon tissue.
Blood samples were collected into K2EDTA and stored on wet ice until processed to plasma by centrifugation (12000 rpm at 4° C.). Plasma samples were transferred to cluster tubes and placed on dry ice prior to freezer storage. The colon contents from each animal were collected at each terminal blood collection time point. The colon tissues were flushed with saline and patted dry. The colon and colon content tissues were homogenized using sterile water containing 0.1% formic acid 9:1 (water:tissue, v/w). The homogenized tissues and colon contents were transferred to cluster tubes and placed on dry ice prior to freezer storage. All samples were analyzed using LC/MS/MS against analytical standards.
The composite pharmacokinetic parameters of the compounds were determined by non-compartmental analysis using Phoenix WinNonlin Version 6 (Certara, St. Louis, Mo.) and using mean values from 2 animals/time point. For plasma concentrations below the quantification limit (BQL), the lowest concentration measurable or the BLOQ (below limit of quantification) was used.
A colon to plasma ratio was determined as the ratio of the colon AUC to the plasma AUC.

JAK2 = JAK2 (Homo sapiens (Human), UniProt O60674); test: Biochemical JAK2 kinase assay (LanthaScreen)
Sequence of JAK2 (O60674 whole entry): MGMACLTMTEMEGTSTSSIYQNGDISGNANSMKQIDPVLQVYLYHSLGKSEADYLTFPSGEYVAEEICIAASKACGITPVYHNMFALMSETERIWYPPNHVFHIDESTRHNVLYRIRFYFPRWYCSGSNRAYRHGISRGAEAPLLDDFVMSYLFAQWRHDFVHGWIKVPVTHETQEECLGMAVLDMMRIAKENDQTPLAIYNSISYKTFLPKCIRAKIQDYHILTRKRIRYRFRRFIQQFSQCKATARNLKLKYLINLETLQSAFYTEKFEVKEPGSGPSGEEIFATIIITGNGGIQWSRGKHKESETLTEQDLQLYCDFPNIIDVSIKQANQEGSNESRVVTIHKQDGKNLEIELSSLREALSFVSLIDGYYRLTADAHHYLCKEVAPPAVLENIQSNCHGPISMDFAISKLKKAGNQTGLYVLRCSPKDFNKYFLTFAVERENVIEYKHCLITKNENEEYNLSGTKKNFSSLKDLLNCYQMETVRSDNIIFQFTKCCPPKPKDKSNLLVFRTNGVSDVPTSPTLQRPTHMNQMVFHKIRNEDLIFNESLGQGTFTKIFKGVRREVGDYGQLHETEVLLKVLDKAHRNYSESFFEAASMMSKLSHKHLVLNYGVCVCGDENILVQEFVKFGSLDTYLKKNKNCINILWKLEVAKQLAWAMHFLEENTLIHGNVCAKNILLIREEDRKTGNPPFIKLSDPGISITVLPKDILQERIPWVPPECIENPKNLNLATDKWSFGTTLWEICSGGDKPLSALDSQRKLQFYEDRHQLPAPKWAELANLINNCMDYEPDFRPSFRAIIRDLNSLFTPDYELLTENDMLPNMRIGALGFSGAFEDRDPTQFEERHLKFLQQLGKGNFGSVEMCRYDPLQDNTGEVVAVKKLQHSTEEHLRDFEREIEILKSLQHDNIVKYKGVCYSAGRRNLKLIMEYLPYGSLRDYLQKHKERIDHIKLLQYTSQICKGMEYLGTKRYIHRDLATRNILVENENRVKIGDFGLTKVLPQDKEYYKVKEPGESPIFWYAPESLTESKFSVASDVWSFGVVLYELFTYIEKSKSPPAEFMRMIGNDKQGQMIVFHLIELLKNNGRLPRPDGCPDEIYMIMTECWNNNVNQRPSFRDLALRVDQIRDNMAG
How it was run: as §1

Caco-2 cell monolayers = test: Caco-2 permeation assay; type: in vitro ADME; details: 5 μM, A-B direction, with Verapamil (25 μM)
How it was run: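 Passive A-to-B permeability with P-gp inhibited by verapamil (25 μM); compound at 5 μM, n=2. Both compartments sampled at t0 and t120 and quantified by LC-MS/MS, giving apparent permeability in cm/sec from flux, area and concentration.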

Sequence of JAK1 (P23458 whole entry): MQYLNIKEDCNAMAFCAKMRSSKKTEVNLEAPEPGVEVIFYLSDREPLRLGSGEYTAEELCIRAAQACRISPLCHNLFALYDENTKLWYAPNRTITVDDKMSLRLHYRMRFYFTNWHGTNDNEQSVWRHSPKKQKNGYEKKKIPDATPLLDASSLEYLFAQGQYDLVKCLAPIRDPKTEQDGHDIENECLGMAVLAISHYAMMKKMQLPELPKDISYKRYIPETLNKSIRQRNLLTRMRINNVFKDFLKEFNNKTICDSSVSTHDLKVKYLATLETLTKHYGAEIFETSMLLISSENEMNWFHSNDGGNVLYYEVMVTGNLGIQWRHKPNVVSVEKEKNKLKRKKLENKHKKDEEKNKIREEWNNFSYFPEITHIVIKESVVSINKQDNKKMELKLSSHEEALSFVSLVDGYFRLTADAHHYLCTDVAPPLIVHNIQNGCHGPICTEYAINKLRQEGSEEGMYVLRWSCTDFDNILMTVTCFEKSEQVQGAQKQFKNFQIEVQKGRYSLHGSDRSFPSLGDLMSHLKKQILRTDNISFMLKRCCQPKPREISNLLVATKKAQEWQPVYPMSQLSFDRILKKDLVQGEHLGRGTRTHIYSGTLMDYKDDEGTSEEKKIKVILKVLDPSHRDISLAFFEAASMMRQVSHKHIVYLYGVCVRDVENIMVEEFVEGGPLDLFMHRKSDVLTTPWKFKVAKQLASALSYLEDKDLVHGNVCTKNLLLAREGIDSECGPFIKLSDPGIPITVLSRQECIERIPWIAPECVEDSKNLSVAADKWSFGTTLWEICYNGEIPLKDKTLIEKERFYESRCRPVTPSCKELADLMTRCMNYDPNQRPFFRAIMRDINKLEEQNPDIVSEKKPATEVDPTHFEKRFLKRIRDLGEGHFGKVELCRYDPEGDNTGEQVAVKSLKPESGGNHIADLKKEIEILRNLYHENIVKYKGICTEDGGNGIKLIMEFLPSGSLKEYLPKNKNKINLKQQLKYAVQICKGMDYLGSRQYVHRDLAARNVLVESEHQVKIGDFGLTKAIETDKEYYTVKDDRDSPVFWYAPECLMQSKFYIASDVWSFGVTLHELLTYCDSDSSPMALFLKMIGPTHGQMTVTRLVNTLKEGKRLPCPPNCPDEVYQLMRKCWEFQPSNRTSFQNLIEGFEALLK

Structure (SMILES)	JAK 1 (pKi) (JAK1)	JAK 3 (pKi) (JAK3)	JAK3 (pKi)-JAK1 (pKi) (JAK3)	Tall-1 (pIC50) [1]	Tyk 2 (pKi) (Tyk2)	Kp [2]	JAK 2 (pKi) (JAK2)	colon to plasma ratio [2]	Caco Kp (Caco-2 cell monolayers)
C=CC(=O)N1CC(C(C)Cn2c(=O)ccc3cnc(Nc4ccc(N5CCN(C(C)=O)CC5)cc4)nc32)C1 (stereo not drawn) [Example 156]	E (E represents a pKi value of 7 or below (Ki of 100 nM or above))	B (B represents pKi value between 9 and 10 (Ki between 1 nM and 0.1 nM))	A (A represents a value of 3 or above)	B (B represents a pC50 value between 6.7 (included) and 7.5 (IC50 between 200 nM and 32 nM))	E (E represents a pKi value of 7 or below (Ki of 100 nM or above))	> 14	E (E represents a pKi value of 7 or below (Ki of 100 nM or above))		
C=CC(=O)N1CC(CCn2c(=O)ccc3cnc(Nc4ccc(CN5CCOCC5)cc4)nc32)C1 [Example 44]	E (E represents a pKi value of 7 or below (Ki of 100 nM or above))	B (B represents pKi value between 9 and 10 (Ki between 1 nM and 0.1 nM))	A (A represents a value of 3 or above)	B (B represents a pC50 value between 6.7 (included) and 7.5 (IC50 between 200 nM and 32 nM))	E (E represents a pKi value of 7 or below (Ki of 100 nM or above))	> 50	E (E represents a pKi value of 7 or below (Ki of 100 nM or above))		
C=CC(=O)N1C[C@H](Nc2ncnc3[nH]ccc23)CC[C@@H]1C [PF-06651600, 2-propen-1-one, 1-[(2S,5R)-2-methyl-5-(7-pyrrolo[2,3-d]pyrimidin-4-ylamino)-1-piperidinyl], reference compound]								2.8	
C=CC(=O)N1CC(CCn2c(=O)ccc3cnc(Nc4ccc(N5CCN(C(=S)N(C)C)CC5)cc4)nc32)C1 [Example 95]	E (E represents a pKi value of 7 or below (Ki of 100 nM or above))	A (A represents a pKi value≥10 (Ki≤0.1 nM))	A (A represents a value of 3 or above)	A (A represents a pIC50 value≥7.5 (IC50≤32 nM))	E (E represents a pKi value of 7 or below (Ki of 100 nM or above))		E (E represents a pKi value of 7 or below (Ki of 100 nM or above))		A (A represents a value below 5×10^−6 cm/sec)
C=CC(=O)N1CCN(CCn2c(=O)ccc3cnc(Nc4ccc(N5CCN(S(C)(=O)=O)CC5)cc4)nc32)[C@@H](CC)C1 [Example 189]	E (E represents a pKi value of 7 or below (Ki of 100 nM or above))	A (A represents a pKi value≥10 (Ki≤0.1 nM))	A (A represents a value of 3 or above)	B (B represents a pC50 value between 6.7 (included) and 7.5 (IC50 between 200 nM and 32 nM))	E (E represents a pKi value of 7 or below (Ki of 100 nM or above))		E (E represents a pKi value of 7 or below (Ki of 100 nM or above))		B (B represents a value between 5×10^−6 and 10×10^−6 cm/sec)
C=CC(=O)N1CC(CCn2c(=O)ccc3cnc(Nc4ccc(N5C[C@@H](C)N(C(C)=O)[C@@H](C)C5)cc4)nc32)C1 [Example 178]	E (E represents a pKi value of 7 or below (Ki of 100 nM or above))	A (A represents a pKi value≥10 (Ki≤0.1 nM))	A (A represents a value of 3 or above)	B (B represents a pC50 value between 6.7 (included) and 7.5 (IC50 between 200 nM and 32 nM))	E (E represents a pKi value of 7 or below (Ki of 100 nM or above))		E (E represents a pKi value of 7 or below (Ki of 100 nM or above))		C (C represents a value between 10×10^−6 and 30×10^−6 cm/sec)
C=CC(=O)N1CCN(CCn2c(=O)ccc3cnc(Nc4ccc(N5CCN(C(=O)CSC)CC5)cc4)nc32)[C@@H](CC)C1 [Example 188]	E (E represents a pKi value of 7 or below (Ki of 100 nM or above))	B (B represents pKi value between 9 and 10 (Ki between 1 nM and 0.1 nM))	A (A represents a value of 3 or above)	B (B represents a pC50 value between 6.7 (included) and 7.5 (IC50 between 200 nM and 32 nM))	E (E represents a pKi value of 7 or below (Ki of 100 nM or above))		E (E represents a pKi value of 7 or below (Ki of 100 nM or above))		C (C represents a value between 10×10^−6 and 30×10^−6 cm/sec)
C=CC(=O)N1CC(CCn2c(=O)ccc3cnc(Nc4cnn(CCN5CCOCC5)c4)nc32)C1 [Example 61]	E (E represents a pKi value of 7 or below (Ki of 100 nM or above))	B (B represents pKi value between 9 and 10 (Ki between 1 nM and 0.1 nM))	A (A represents a value of 3 or above)	B (B represents a pC50 value between 6.7 (included) and 7.5 (IC50 between 200 nM and 32 nM))	E (E represents a pKi value of 7 or below (Ki of 100 nM or above))		E (E represents a pKi value of 7 or below (Ki of 100 nM or above))		A (A represents a value below 5×10^−6 cm/sec)
C=CC(=O)N1CC(CCn2c(=O)ccc3cnc(Nc4ccc5c(c4)oc(=O)n5C)nc32)C1 [Example 60]	E (E represents a pKi value of 7 or below (Ki of 100 nM or above))	B (B represents pKi value between 9 and 10 (Ki between 1 nM and 0.1 nM))	A (A represents a value of 3 or above)	B (B represents a pC50 value between 6.7 (included) and 7.5 (IC50 between 200 nM and 32 nM))	E (E represents a pKi value of 7 or below (Ki of 100 nM or above))		E (E represents a pKi value of 7 or below (Ki of 100 nM or above))		B (B represents a value between 5×10^−6 and 10×10^−6 cm/sec)
C=CC(=O)N1CCN(CCn2c(=O)ccc3cnc(Nc4ccc(N5CCN(C(=O)COC)CC5)cc4)nc32)[C@@H](CC)C1 [Example 186]	E (E represents a pKi value of 7 or below (Ki of 100 nM or above))	B (B represents pKi value between 9 and 10 (Ki between 1 nM and 0.1 nM))	A (A represents a value of 3 or above)	B (B represents a pC50 value between 6.7 (included) and 7.5 (IC50 between 200 nM and 32 nM))	E (E represents a pKi value of 7 or below (Ki of 100 nM or above))		E (E represents a pKi value of 7 or below (Ki of 100 nM or above))		A (A represents a value below 5×10^−6 cm/sec)
C=CC(=O)N1CCN(CCn2c(=O)ccc3cnc(Nc4ccc(N5CCN(C(C)C)CC5)cc4)nc32)CC1 [Example 205]	E (E represents a pKi value of 7 or below (Ki of 100 nM or above))	B (B represents pKi value between 9 and 10 (Ki between 1 nM and 0.1 nM))	A (A represents a value of 3 or above)	A (A represents a pIC50 value≥7.5 (IC50≤32 nM))	E (E represents a pKi value of 7 or below (Ki of 100 nM or above))		E (E represents a pKi value of 7 or below (Ki of 100 nM or above))		B (B represents a value between 5×10^−6 and 10×10^−6 cm/sec)
C=CC(=O)N1CC(CCn2c(=O)ccc3cnc(Nc4ccc(N5CCN(C(=O)OCCOC)CC5)cc4)nc32)C1 [Example 99]	E (E represents a pKi value of 7 or below (Ki of 100 nM or above))	A (A represents a pKi value≥10 (Ki≤0.1 nM))	A (A represents a value of 3 or above)	B (B represents a pC50 value between 6.7 (included) and 7.5 (IC50 between 200 nM and 32 nM))	E (E represents a pKi value of 7 or below (Ki of 100 nM or above))		E (E represents a pKi value of 7 or below (Ki of 100 nM or above))		A (A represents a value below 5×10^−6 cm/sec)
